Key:
[1] = AUC (0 to infinity) in female C57BL/6 mouse at 3 mg/kg, po administered as single dose; format: ADME, organism-based; design: dose 3 mg/kg, route oral, time infinity; settings: plasma
[2] = Solubility in phosphate buffer at pH 6.8; format: physicochemical
[3] = Cmax in ovariectomized Wistar rat at 3 mg/kg, po administered as single dose; format: ADME, organism-based; design: dose 3 mg/kg, route oral; settings: female, in vivo
[4] = Permeability of the compound by PAMPA assay; format: ADME; settings: read-out: permeability
[5] = AUC (0 to infinity) in ovariectomized Wistar rat at 3 mg/kg, po administered as single dose; format: ADME, organism-based; design: dose 3 mg/kg, route oral, time infinity; settings: female, plasma
[6] = Cmax in female C57BL/6 mouse at 3 mg/kg, po administered as single dose; format: ADME, organism-based; design: dose 3 mg/kg, route oral; settings: in vivo
[7] = AUC (0 to infinity) in female C57BL/6 mouse at 1 mg/kg, po administered as single dose; settings: plasma
[8] = Cmax in female C57BL/6 mouse at 1 mg/kg, po administered as single dose; settings: in vivo

AUC(0-inf) [1] [ng·h/mL]	solubility [2] [µg/mL]	Cmax [3] [ng/mL]	Papp [4] [×10⁻⁶ cm/s]	AUC(0-inf) [5] [ng·h/mL]	Cmax [6] [ng/mL]	AUC(0-inf) [7] [ng·h/mL]	Cmax [8] [ng/mL]	Structure (SMILES)
188	> 25	135	> 30	542	98	–	–	COc1cnc(-c2ccccn2)nc1NCc1c(F)cc(F)cc1F
1020	> 25	156	> 30	943	599	–	–	COc1cnc(-c2ccccn2)nc1NCc1ccc(F)cc1C(F)(F)F
240	> 25	49	> 30	151	130	–	–	COc1cnc(-c2ccccn2)nc1NCc1ccccc1F
–	–	–	–	–	–	15	7	COc1cnc(-c2ccccn2)nc1N1CCCC1

From ChEMBL document CHEMBL2069291, “Orally available pyridinylpyrimidine derivatives as novel RANKL-induced osteoclastogenesis inhibitors” (Bioorg Med Chem Lett, 2012)
